In the Kinase Knowledgebase extract (Sharma et al. 2016):

Target: CDK2 (human) (UniProt P24941)
Test: Enzyme Assay

Compound	Ki
CCc1cc(Nc2nc(-c3ccncc3)nc(-c3ccc4[nH][nH]c(=O)c4c3)n2)n[nH]1	< 1 µM
O=c1[nH][nH]c2cc(Nc3nc(Nc4n[nH]c5ccccc45)c4ccccc4n3)ccc12	< 1 µM
O=c1[nH][nH]c2cc(NOCCNc3cc(C4CC4)[nH]n3)ccc12	< 1 µM
Cc1cc(Nc2nc(COc3ccc4[nH][nH]c(=O)c4c3)nc3c2CCCCC3)n[nH]1	< 1 µM
O=c1[nH][nH]c2cc(Nc3nc(Nc4cc(-c5ccco5)[nH]n4)cc(-c4ccccc4)n3)ccc12	< 1 µM
O=c1[nH][nH]c2cc(Nc3ccc([N+](=O)[O-])c(Nc4ncn[nH]4)n3)ccc12	< 1 µM
O=C(CCNc1cc(C2CC2)[nH]n1)Cc1ccc2c(=O)[nH][nH]c2c1	< 1 µM
O=C(CCSc1ccc2c(=O)[nH][nH]c2c1)Nc1ccccn1	< 1 µM
Cc1cc(Nc2cc(-c3ccccc3)nc(Sc3ccc4c(=O)[nH][nH]c4c3)n2)n[nH]1	< 1 µM
O=c1[nH][nH]c2cc(Sc3cc4ccccc4c(Nc4n[nH]c5ccccc45)n3)ccc12	< 1 µM
Cc1cnc(NC(=O)CCOc2ccc3c(=O)[nH][nH]c3c2)s1	< 1 µM
N#Cc1c(-c2ncnc(Nc3n[nH]c4c3CCCC4)n2)ccc2[nH][nH]c(=O)c12	< 1 µM
O=c1[nH][nH]c2cc(Sc3nc(Nc4cc(C5CC5)[nH]n4)cc(N4CCOCC4)n3)ccc12	< 1 µM
COc1cccc2c(Nc3cc(C4CC4)[nH]n3)nc(Sc3ccc4c(=O)[nH][nH]c4c3)nc12	< 1 µM
O=c1[nH][nH]c2ccc(-c3nc4c(c(Nc5n[nH]c6c(F)cc(F)cc56)n3)CCCC4)c(C(F)(F)F)c12	< 1 µM
Cc1cc(Nc2nc(Nc3ccc4c(=O)[nH][nH]c4c3)nc3cccc(C)c23)n[nH]1	< 1 µM
COCc1cc(Nc2nc(-c3ccc4[nH][nH]c(=O)c4c3C(F)(F)F)nc3ccccc23)n[nH]1	< 1 µM
Cc1cc(Nc2cc(-c3ccco3)[nH]n2)nc(COc2ccc3c(=O)[nH][nH]c3c2)n1	< 1 µM
CN1CCN(C(=O)OCc2ccccc2)CC1c1cc(Nc2n[nH]c3ccccc23)nc(-c2ccc3[nH][nH]c(=O)c3c2C(F)(F)F)n1 (configuration not stated)	< 1 µM

Compound	Ki
O=c1[nH][nH]c2cc(CSc3cc(Nc4n[nH]c5ccccc45)c4ccccc4n3)ccc12	< 1 µM
Cc1cnc(NC2COCC(Oc3ccc4c(=O)[nH][nH]c4c3)C2)s1 (configuration not stated)	< 1 µM
Cc1nc(Nc2nc(-c3ccc4[nH][nH]c(=O)c4c3C(N)=O)nc3ccccc23)n[nH]1	< 1 µM
O=c1[nH][nH]c2ccc(CNc3cc(Nc4cc(C5CC5)[nH]n4)ccn3)cc12	< 1 µM
O=c1[nH][nH]c2ccc(-c3nc(Nc4n[nH]c5cccc(Cl)c45)c4ccccc4n3)c(C(F)(F)F)c12	< 1 µM
Cc1cc(Nc2nc(NCc3ccc4c(=O)[nH][nH]c4c3)cc3ccccc23)n[nH]1	< 1 µM
O=c1[nH][nH]c2cc(Oc3cccc(Nc4cc(C5CC5)[nH]n4)n3)ccc12	< 1 µM
Cc1cc(Nc2nc(Nc3ccc4c(=O)[nH][nH]c4c3)nc3ccc(-c4ccccc4Cl)cc23)n[nH]1	< 1 µM
Cn1cnc(NC2CCCC2CCc2ccc3c(=O)[nH][nH]c3c2)c1 (configuration not stated)	< 1 µM
O=c1[nH][nH]c2cc(Sc3nc(Nc4cc(C5CC5)[nH]n4)c4cccc(F)c4n3)ccc12	< 1 µM
Cc1cc(Nc2cc(N3CCN(C)CC3)nc(Oc3ccc4c(=O)[nH][nH]c4c3)n2)n[nH]1	< 1 µM
O=c1[nH][nH]c2cc(COCc3nc(Nc4cc(C5CC5)[nH]n4)c4ccccc4n3)ccc12	< 1 µM
O=C(CC(=O)Nc1ccccn1)Nc1ccc2c(=O)[nH][nH]c2c1	< 1 µM
COc1ccc(-c2cc(Nc3cc(C)[nH]n3)nc(Sc3ccc4c(=O)[nH][nH]c4c3)n2)cc1	< 1 µM
Cc1cnc(NC2COCC(C(C)(C)c3ccc4c(=O)[nH][nH]c4c3)C2)s1 (configuration not stated)	< 1 µM
Cc1cc(Nc2cc(C)[nH]n2)nc(C(C)(C)c2ccc3c(=O)[nH][nH]c3c2)n1	< 1 µM
O=c1[nH][nH]c2cc(NCCCNc3nccnn3)ccc12	< 1 µM
CN1CCN(c2cc(Nc3cc(C4CC4)[nH]n3)nc(Sc3ccc4c(=O)[nH][nH]c4c3)n2)CC1	< 1 µM
